The text below walks through data of ChEMBL document CHEMBL1158508, “Molecular modeling study of 4-phenylpiperazine and 4-phenyl-1,2,3,6-tetrahydropyridine derivatives: a new step towards the design of high-affinity 5-HT1A ligands” (Bioorg Med Chem Lett, 2010).

The term IC50 denotes the concentration that inhibits the measured activity by half. Low values mean higher potency, high ones lower potency. A word on the Ki: it is the dissociation constant of the complex between target and ligand, obtained from inhibition or displacement. Low readings indicate higher affinity, high ones lower affinity.

The target in experiment [1] is T1, 5-hydroxytryptamine receptor 1A (Homo sapiens, UniProt P08908).
T1 sequence (P08908 whole entry): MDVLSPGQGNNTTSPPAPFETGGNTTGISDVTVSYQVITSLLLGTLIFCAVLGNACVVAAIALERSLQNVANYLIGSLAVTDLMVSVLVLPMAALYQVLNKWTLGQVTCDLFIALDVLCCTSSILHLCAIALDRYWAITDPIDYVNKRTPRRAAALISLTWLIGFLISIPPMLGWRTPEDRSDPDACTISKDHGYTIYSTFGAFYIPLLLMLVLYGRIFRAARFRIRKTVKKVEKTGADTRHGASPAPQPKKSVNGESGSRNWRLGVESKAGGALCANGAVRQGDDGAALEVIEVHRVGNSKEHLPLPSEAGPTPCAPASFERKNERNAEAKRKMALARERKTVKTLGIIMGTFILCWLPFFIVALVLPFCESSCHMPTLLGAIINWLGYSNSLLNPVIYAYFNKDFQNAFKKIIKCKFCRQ
Nature of the experiment: Inhibition of 5HT1A receptor.

The target in experiment [2] is 5-hydroxytryptamine receptor 7 (Homo sapiens, UniProt P34969). The experiment in a line: Binding affinity to 5HT7 receptor.
5-hydroxytryptamine receptor 7, sequence (P34969 whole entry): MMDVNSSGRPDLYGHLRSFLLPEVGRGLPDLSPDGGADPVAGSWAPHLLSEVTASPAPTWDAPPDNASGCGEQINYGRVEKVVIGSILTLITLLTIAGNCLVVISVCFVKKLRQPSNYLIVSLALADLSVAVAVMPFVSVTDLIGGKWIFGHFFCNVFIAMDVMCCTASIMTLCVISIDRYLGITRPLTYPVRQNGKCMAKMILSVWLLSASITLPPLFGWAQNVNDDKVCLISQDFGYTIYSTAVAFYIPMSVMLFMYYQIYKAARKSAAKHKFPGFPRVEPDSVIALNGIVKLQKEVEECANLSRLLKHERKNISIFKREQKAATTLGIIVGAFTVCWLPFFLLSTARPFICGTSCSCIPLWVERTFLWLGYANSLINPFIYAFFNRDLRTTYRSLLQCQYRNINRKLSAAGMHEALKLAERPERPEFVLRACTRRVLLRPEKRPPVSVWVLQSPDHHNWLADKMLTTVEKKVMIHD

In turn, `COc1ccc2[nH]cc(CCCCN3CC=C(c4ccccc4)CC3)c2c1` returned an IC50 in experiment [1] of 20 nM.
In the case of `O=C1Nc2cccc3c2C1(CCCCN1CC=C(c2ccccc2)CC1)CCC3` (racemic), in experiment [2], the Ki was 3.31 nM.
Take `O=C1Nc2cccc3c2C1(CCCCN1CCN(c2ccccc2)CC1)CCC3` (racemic): in experiment [2], the Ki is 2.14 nM.
Molecule `Oc1ccc2[nH]cc(CCCCN3CC=C(c4ccccc4)CC3)c2c1` [ROXINDOLE] came in with a half-inhibitory concentration (IC50) in experiment [1] of 0.8 nM.
